Values quoted from earlier work in US20070224216A1, “Methods and Compositions Related to Antiviral Therapy Using Algae and Cyanobacteria” (priority 2004, published 2007).

Substance | plasma concentrations after oral administration (rat, in vivo, po) | thrombosis in the rat jugular vein model (rats, oral) | toxicity to uninfected cells (uninfected cells)
heparin [oral heparins] | less than 1% | reduction of thrombosis | 
calcium spirulan |  |  | No toxicity
